US20090325931A1, “USE OF CDK INHIBITORS FOR THE TREATMENT OF GRANULOCYTE MEDIATED DISORDERS” (University Court of the University of Edinburgh, priority 2006, published 2009)

How the values were obtained:
[1] = system: carrageenan-induced pleural inflammation; assay: Carrageenan-induced pleurisy; assay type: in vivo, C57BL/6J mice
human neutrophils [2] = assay: Human neutrophil apoptosis (annexin-V-FITC binding, confirmed by morphology); assay type: cell-based; settings: for rate of apoptosis, time course study: after 8 h, NG75 10 μM, HD 10 μM; for rate of constitutive apoptosis: increasing concentrations, over 20 h; for rates of apoptosis assessed by annexin V binding: stereoisomers at 20 μM, after 6 h, mean±s.e.m., n=4 donors, control 12.4±0.4%
human neutrophils [3] = assay: Reversal of dbcAMP, GMCSF and LPS mediated survival of neutrophils; assay type: cell-based; settings: 30 min pre-incubation with survival factor, then 20 h
Experimental: At least 500 cells were counted per slide and the percentage apoptosis calculated. Apoptosis and loss of membrane integrity was also assessed by flow cytometry using human recombinant annexin-V-FITC (Roche, UK) to measure phosphatidylserine (PS) exposure, in combination with propidium iodide (Sigma). Stock annexin-V-FITC was diluted at 1:500 in annexin-V binding buffer (500 ml Hanks Balanced Salt Solution containing […]) and was added at a volume of 280 μl to 5×10^4 cells, and then incubated on ice for 10 min. 1 μl of PI (stock 1 mg/ml) was added to the samples shortly before analysis using the EPICS XL2 flow cytometer (Beckman Coulter, High Wycombe, UK). Where apoptosis data are presented as annexin-V binding, apoptosis was also confirmed by morphological assessment.
Since CDK inhibitors were able to accelerate apoptosis, the inventors investigated whether these compounds could also reverse the effects of agents known to delay apoptosis through different signaling pathways (Riley, N. A. et al. Anti-inflammatory & Anti-Allergy Agents in Medicinal Chemistry 5, 3-12 (2006)). […] Lipopolysaccharide (LPS) binds to Toll-like receptor (TLR)4, that interacts with CD14 eventually leading to mitogen-activation kinases (MAPK), PI3K and/or NF-κB signaling to inhibit apoptosis. […] Apoptosis was assessed by annexin-V-FITC, and checked by morphology.

tumor = settings: cited from earlier work
serum induced arthritis = assay: Passively-induced (K/BxN serum) arthritis; assay type: in vivo, C57BL/6J mice; settings: 10 mg/kg i.p. on days 3-19 every second day
Experimental: Sera (100 μl) extracted from 60 day old arthritic K/B×N mice was injected intra-peritoneally into 6-8 week old female C57BL/6J mice (B&K, Hull, UK). Arthritis was scored by clinical examination. Briefly, a score of 1 was given for erythema alone or swelling of 1 digit. A score of 2 resulted from erythema plus swelling of the tarsal joints or swelling of the hock or wrist joint alone. A maximum score of 3 was achieved when swelling was present in both tarsal and hock joints, or both wrist and digits, or more than 2 digits and the tarsal joints. The score for each limb was added giving a maximum score of 12 and the mean score reflects the total score divided by the number of recipient mice per group.
Mice (n=10 in each group) were injected twice (days 0 and 3) with K/B×N serum derived from arthritic (day 60) K/B×N transgenic mice. Clinical scores were assessed on the days indicated.

Mcl-1 = Mcl-1 protein expression in neutrophils (western blot); assay type: cell-based, human
caspase-3 = assay: Caspase-3 cleavage in neutrophils (western blot); settings: 20 μM, 4 h
[4] = zVAD-fmk 1 μg/Kg i.p. at 4 h intervals
[5] = zVAD-fmk 1 μg/Kg i.p. at 4 h intervals, R-roscovitine 10 mg/Kg
[6] = 10 or 100 mg/Kg i.p., 36 h post-carrageenan

Molecule: COC(=O)C[C@H](NC(=O)[C@H](C)NC(=O)[C@@H](NC(=O)OCc1ccccc1)C(C)C)C(=O)CF (racemic) [zVAD-fmk, z-Val-Ala-DL-Asp-fluoromethylketone]
- edema formation compared with saline or vehicle controls [1, 4]: increasing
- total inflammatory cell number compared with saline or vehicle controls [1, 4]: increasing
- effect on R-roscovitine increase in inflammatory cell apoptosis and macrophages containing apoptotic bodies [1, 5]: inhibited dramatically
- effect on R-roscovitine-induced decrease in inflammatory cells and edema formation [1, 5]: prevented
- effect on R-roscovitine induced apoptosis (human neutrophils [2]; zVAD-fmk 100 μM, R-roscovitine 20 μM, 6 h): prevented R-roscovitine induced apoptosis

Molecule: COc1ccc(CNc2nc(N[C@@H](CO)C(C)C)nc3c2ncn3C(C)C)cc1 [NG75, 2-(1R-isopropyl-2-hydroxyethylamino)-6-(4-methoxy-benzylamino)-9-isopropylpurine]
- annexin-V/PI positive cell populations (secondary necrosis) (human neutrophils [2]; 20 h treatment): increased number
- rate of apoptosis, time course study (human neutrophils [2]; R-roscovitine 20 μM): increased the rate of apoptosis dramatically
- annexin V positive cells (human neutrophils [2]; after 8 h of treatment): marked increase
- rate of constitutive apoptosis (human neutrophils [2]): significantly increased

Molecule: CC[C@H](CO)Nc1nc(NCc2ccccc2)c2ncn(C(C)C)c2n1 [R-roscovitine, (R)-2-[{9-(1-methylethyl)-6-[(phenylmethyl)amino]-9H-purin-2-yl]amino}-1-butanol]
- effect on survival signals (dbcAMP, GMCSF, LPS delayed apoptosis) (human neutrophils [3]): clearly is dominant over survival factor mediated effects
- tolerability (tumor; even with high doses of 2 g/kg): well tolerated
- tumor size (tumor; systemic administration): specific reduction in tumor size
- inhibition of total inflammatory cell number compared with vehicle control ([1]; 10 mg/kg i.p. 24 h after carrageenan, 36 h post-carrageenan): greater than 50%
- number of monocytes/macrophages and neutrophils ([1]; 10 mg/kg i.p., 36 h post-carrageenan): reduction
- lung inflammation (inflammatory infiltrate in lung sections) ([1]; 100 mg/Kg i.p., 36 h post-carrageenan): dramatically reduced
- pleural cavity total cell numbers over seven days ([1]; 100 mg/kg i.p. at 24 h, all time points examined): marked resolution of inflammation
- amount of inflammatory cells in pleural cavity ([1]; 100 mg/kg i.p., 36 h post-carrageenan): near baseline levels
- IFN-γ in the inflammatory exudate [1, 6]: diminished
- IL-6 in the inflammatory exudate [1, 6]: diminished
- MCP-1 in the inflammatory exudate [1, 6]: diminished
- edema formation (total exudate volume), decrease compared with saline control ([1]; 36 h post-carrageenan): three-fold
- inflammatory cell apoptosis and macrophages containing apoptotic bodies in the pleural cavity ([1]; 36 h post-carrageenan): increase
- arthritis as assessed by clinical scores (serum induced arthritis): dramatically resolved quicker
- effect on GM-CSF mediated up-regulation of Mcl-1 (Mcl-1; R-roscovitine 20 μM plus GM-CSF 50 U/ml, 4 h): inhibits GM-CSF mediated up-regulation of Mcl-1
- rate of apoptosis, time course study (human neutrophils [2]; R-roscovitine 20 μM): increased the rate of apoptosis dramatically
- rate of constitutive apoptosis (human neutrophils [2]): significantly increased
- rates of apoptosis assessed by annexin V binding (human neutrophils [2]): 75.9±3.5%
- caspase-3 cleavage (caspase-3): results in caspase-3 cleavage

Molecule: CC[C@@H](CO)Nc1nc(NCc2ccccc2)c2ncn(C(C)C)c2n1 [S-roscovitine]
- rates of apoptosis assessed by annexin V binding (human neutrophils [2]): 75.6±3.3%

Molecule: GM-CSF: pro-survival factor (R & D Systems)
- effect on fall of Mcl-1 levels in culture (Mcl-1; GM-CSF 50 U/ml): prevented
